tested on: HCV replicons (HCV RNA replication) in Huh-7 luc/neo cells; test: Stable replicon cell reporter assay (Huh-Luc, luciferase); type: cell-based; conditions: Hepatitis C virus, 72 h; Huh-Luc (Huh-7 luc/neo) cells, HCV type 1b NS3-NS5B replicon, luciferase readout, three days incubation
Excerpt: The compounds of the present invention were examined for activity in the inhibition of HCV RNA replication in a cellular assay. […] The cellular assay was based on a bicistronic expression construct, as described by Lohmann et al. (1999) Science vol. 285 pp. 110-113 with modifications described by Krieger et al. (2001) Journal of Virology 75: 4614-4624, in a multi-target screening strategy. In essence, the method was as follows.
The assay utilized the stably transfected cell line Huh-7 luc/neo (hereafter referred to as Huh-Luc). This cell line harbored an RNA encoding a bicistronic expression construct comprising the wild type NS3-NS5B regions of HCV type 1b translated from an Internal Ribosome Entry Site (IRES) from encephalomyocarditis virus (EMCV), preceded by a reporter portion (FfL-luciferase), and a selectable marker portion (neo^R, neomycine phosphotransferase). The construct was bordered by 5′ and 3′ NTRs (non-translated regions) from HCV type 1b. Continued culture of the replicon cells in the presence of G418 (neo^R) was dependent on the replication of the HCV RNA. The stably transfected replicon cells that expressed HCV RNA, which replicated autonomously and to high levels, encoding inter alia luciferase, were used for screening the antiviral compounds.
The replicon cells were plated in 384 well plates in the presence of the test and control compounds which were added in various concentrations. Following an incubation of three days, HCV replication was measured by assaying luciferase activity (using standard luciferase assay substrates and reagents and a Perkin Elmer ViewLux™ ultraHTS microplate imager). Replicon cells in the control cultures had high luciferase expression in the absence of any inhibitor. The inhibitory activity of the compound on luciferase activity was monitored on the Huh-Luc cells, enabling a dose-response curve for each test compound. EC50 values were then calculated, which value represented the amount of the compound required to decrease by 50% the level of detected luciferase activity, or more specifically, the ability of the genetically linked HCV replicon RNA to replicate.

Point of comparison: `NNC(=O)c1cnccc1Nc1nc(-c2cc(Cl)ccc2F)nc2c1CCC2` [Compound 58], EC50 10.3 µM. Against it:
- CN(C)CCCNC(=O)c1cnccc1Nc1nc(-c2cc(Cl)ccc2F)nc2c1CCC2 [Compound 69] — 5.7-fold lower, 1.8 µM
- Cc1cnccc1Nc1nc(-c2cc(Cl)ccc2F)nn2cccc12 [Compound 80] — 1.8-fold lower, 5.8 µM
- CNC(=O)c1cnccc1Nc1nc(-c2cc(Cl)ccc2F)nc2c1CCC2 [Compound 35] — 6.9-fold lower, 1.5 µM
- CNC(=O)c1cnccc1Nc1nc(-c2cc(Cl)ccc2F)nc2c1C(C)CC2 (centres unmarked) [Compound 47, 4-[2-(5-Chloro-2-fluorophenyl)-5-methyl-6,7-dihydro-5H-cyclopentapyrimidin-4-ylamino]-N-methyl-nicotinamide] — 2.7-fold higher, 27.7 µM
- Cc1cnccc1Nc1nc(-c2cc(Cl)ccc2F)nc2c1CCC2 [Compound 20] — 15-fold lower, 0.7 µM
- CC1(C)Cc2nc(-c3cc(Cl)ccc3F)nc(Nc3ccncc3C(N)=O)c2C1 [Compound 62, 4-[2-(5-Chloro-2-fluoro-phenyl)-6,6-dimethyl-6,7-dihydro-5H-cyclopentapyrimidin-4-ylamino]-nicotinamide] — 13-fold lower, 0.8 µM
- NC(=O)c1cnccc1Nc1nc(-c2cc(Cl)ccc2F)nc2c1CCC2 [Compound 21] — 26-fold lower, 0.4 µM
- CCN(CC)CCNC(=O)c1cnccc1Nc1nc(-c2cc(Cl)ccc2F)nc2c1CCCC2 [Compound 59] — 5.2-fold lower, 2 µM
- C[C@H](O)CNC(=O)c1cnccc1Nc1nc(-c2cc(Cl)ccc2F)nc2c1CCCC2 [Compound 57] — 2.3-fold higher, 24 µM
- Cc1noc2nc(-c3cc(Cl)ccc3F)nc(Nc3ccncc3)c12 [Compound 8] — 26-fold lower, 0.4 µM
- CNC(=O)c1cnccc1Nc1nc(-c2cc(Cl)ccc2F)nc2c1CCCC2 [Compound 40] — within 1.5-fold, 7.3 µM
- CC1CCc2nc(-c3cc(Cl)ccc3F)nc(Nc3ccncc3C(N)=O)c21 (centres unmarked) [Compound 46] — 6.4-fold lower, 1.6 µM
- CC1CCc2nc(-c3cc(Cl)ccc3F)nc(Nc3ccncc3C(=O)O)c21 (centres unmarked) [Compound 49, 4-[2-(5-Chloro-2-fluorophenyl)-5-methyl-6,7-dihydro-5H-cyclopentapyrimidin-4-ylamino]-nicotinic acid] — within 1.5-fold, 13.1 µM
